Target: phosphorylated p-38-alpha kinase (Homo sapiens, UniProt Q16539)
Test: P-38 alpha kinase assay P1 (coupled spectrophotometric, 2 h pre-incubation)
Assay type: biochemical
Conditions: method P1 (2 h pre-incubation); read-out: P-38 Data

Sequence of phosphorylated p-38-alpha kinase (Q16539 1-360 isoform Q16539-2): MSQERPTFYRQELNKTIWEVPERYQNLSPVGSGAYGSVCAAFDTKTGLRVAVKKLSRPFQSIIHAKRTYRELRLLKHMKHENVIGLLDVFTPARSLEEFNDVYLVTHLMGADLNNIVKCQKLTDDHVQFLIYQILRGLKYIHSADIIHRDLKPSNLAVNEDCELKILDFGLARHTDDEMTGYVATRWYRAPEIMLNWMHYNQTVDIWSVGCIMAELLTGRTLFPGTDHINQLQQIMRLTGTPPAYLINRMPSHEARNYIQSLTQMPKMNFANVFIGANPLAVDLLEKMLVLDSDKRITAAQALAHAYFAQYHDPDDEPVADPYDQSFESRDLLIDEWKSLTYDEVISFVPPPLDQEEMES

With `O=C(O)Cc1cccc(-n2nc(-c3cccs3)cc2NC(=O)N[C@H]2CCc3ccccc32)c1` [Example 361, 2-(3-(5-(3-((S)-2,3-dihydro-1H-inden-1-yl)ureido)-3-(thiophen-2-yl)-1H-pyrazol-1-yl)phenyl)acetic acid] as the molecule, how does the IC50 read?
The IC50 was 30 nM.

How did the IC50 turn out when `O=C(O)Cc1cccc(-n2nc(-c3ccccc3F)cc2NC(=O)Nc2ccc(F)c(F)c2F)c1` [Example 362, 2-(3-(3-(2-fluorophenyl)-5-(3-(2,3,4-trifluorophenyl)-ureido)-1H-pyrazol-1-yl)phenyl)acetic acid] was run?
The IC50 was 38 nM.

`O=C(O)Cc1cccc(-n2nc(-c3ccccc3F)cc2NC(=O)Nc2cccc3ccccc23)c1` [Example 363, 2-(3-(3-(2-Fluorophenyl)-5-(3-(naphthalen-1-yl)ureido)-1H-pyrazol-1-yl)phenyl)acetic acid] was tested. Which IC50 did it give?
The IC50 was 13 nM.

For `O=C(O)Cc1cccc(-n2nc(-c3cccs3)cc2NC(=O)Nc2cccc3ccccc23)c1` [Example 364, 2-(3-(5-(3-(naphthalen-1-yl)ureido)-3-(thiophen-2-yl)-1H-pyrazol-1-yl)phenyl)acetic acid], which IC50 is on record?
Its IC50 is 13 nM.

For `O=C(O)Cc1cccc(-n2nc(-c3cccs3)cc2NC(=O)Nc2ccc(F)c(F)c2F)c1` [Example 365, 2-(3-(3-(thiophen-2-yl)-5-(3-(2,3,4-trifluorophenyl)-ureido)-1H-pyrazol-1-yl)phenyl)acetic acid], which IC50 is on record?
Its IC50 is 70 nM.

Which IC50 does the source give for `O=C(O)Cc1ccc(-n2nc(-c3ccccc3F)cc2NC(=O)Nc2ccc(F)c(F)c2F)cc1` [Example 388, 2-(4-(3-(2-fluorophenyl)-5-(3-(2,3,4-trifluorophenyl)ureido)-1H-pyrazol-1-yl)phenyl)acetic acid] here?
Its IC50 is 91 nM.

Which IC50 does the source give for `O=C(O)Cc1ccc(-n2nc(-c3cccs3)cc2NC(=O)N[C@H]2CCc3ccccc32)cc1` [Example 389, 2-(4-(5-(3-((S)-2,3-dihydro-1H-inden-1-yl)ureido)-3-(thiophen-2-yl)-1H-pyrazol-1-yl)phenyl)acetic acid] here?
The IC50 was 13 nM.

`CNC(=O)Cc1cccc(-n2nc(C(C)(C)C)cc2NC(=O)Nc2cccc(F)c2F)c1` [Example 401, 1-(3-t-butyl-1-(3-(2-(methylamino)-2-oxoethyl)phenyl)-1H-pyrazol-5-yl)-3-(2,3-difluorophenyl)urea] was tested. Which IC50 did it give?
The IC50 was 63 nM.

Which IC50 does the source give for `CNC(=O)Cc1cccc(-n2nc(C(C)(C)C)cc2NC(=O)Nc2ccc(F)c(F)c2F)c1` [Example 402, 1-(3-t-butyl-1-(3-(2-(methylamino)-2-oxoethyl)phenyl)-1H-pyrazol-5-yl)-3-(2,3,4-trifluorophenyl)urea] here?
The IC50 was 26 nM.

Which IC50 does the source give for `CC(C)(C)c1cc(NC(=O)Nc2cccc(Cl)c2Cl)n(-c2cccc(CC(=O)N3CCC[C@@H]3CO)c2)n1` [Example 407, 1-(3-t-butyl-1-(3-(2-((R)-2-(hydroxymethyl)pyrrolidin-1-yl)-2-oxoethyl)phenyl)-1H-pyrazol-5-yl)-3-(2,3-dichlorophenyl)urea] here?
The IC50 was 45 nM.

`CC(C)(C)c1cc(NC(=O)Nc2cccc(Cl)c2Cl)n(-c2cccc(CC(=O)N3CCC[C@H]3CO)c2)n1` [Example 408, 1-(3-t-butyl-1-(3-(2-((S)-2-(hydroxymethyl)pyrrolidin-1-yl)-2-oxoethyl)phenyl)-1H-pyrazol-5-yl)-3-(2,3-dichlorophenyl)urea] was tested. Which IC50 did it give?
Its IC50 is 46 nM.

`COC[C@@H]1CCCN1C(=O)Cc1cccc(-n2nc(C(C)(C)C)cc2NC(=O)Nc2cccc(Cl)c2Cl)c1` [Example 409, 1-(3-t-butyl-1-(3-(2-((S)-2-(methoxymethyl)pyrrolidin-1-yl)-2-oxoethyl)phenyl)-1H-pyrazol-5-yl)-3-(2,3-dichlorophenyl)urea] was tested. Which IC50 did it give?
Its IC50 is 150 nM.

Which IC50 does the source give for `NC(=O)Cc1cccc(-n2nc(-c3nccs3)cc2NC(=O)Nc2cccc(Cl)c2Cl)c1` [Example 410, 1-(1-(3-(2-amino-2-oxoethyl)phenyl)-3-(thiazol-2-yl)-1H-pyrazol-5-yl)-3-(2,3-dichlorophenyl)urea] here?
Its IC50 is 88 nM.

Which IC50 does the source give for `NC(=O)Cc1cccc(-n2nc(-c3ccccc3F)cc2NC(=O)N[C@H]2CCc3ccccc32)c1` [Example 411, 1-(1-(3-(2-amino-2-oxoethyl)phenyl)-3-(2-fluorophenyl)-1H-pyrazol-5-yl)-3-((S)-2,3-dihydro-1H-inden-1-yl)urea] here?
The IC50 was 37 nM.

`O=C(Cc1cccc(-n2nc(-c3ccccc3F)cc2NC(=O)N[C@H]2CCc3ccccc32)c1)NCCO` [Example 412, 1-((S)-2,3-dihydro-1H-inden-1-yl)-3-(3-(2-fluorophenyl)-1-(3-(2-(2-hydroxyethylamino)-2-oxoethyl)phenyl)-1H-pyrazol-5-yl)urea] was tested. Which IC50 did it give?
Its IC50 is 41 nM.

`O=C(Cc1cccc(-n2nc(-c3ccccc3F)cc2NC(=O)N[C@H]2CCc3ccccc32)c1)NCC(O)CO` (stereo partly drawn) [Example 413, 1-((S)-2,3-dihydro-1H-inden-1-yl)-3-(1-(3-(2-(2,3-dihydroxypropylamino)-2-oxoethyl)phenyl)-3-(2-fluorophenyl)-1H-pyrazol-5-yl)urea] was tested. Which IC50 did it give?
Its IC50 is 28 nM.

For `NC(=O)Cc1cccc(-n2nc(-c3cccs3)cc2NC(=O)N[C@H]2CCc3ccccc32)c1` [Example 415, 1-(1-(3-(2-amino-2-oxoethyl)phenyl)-3-(thiophen-2-yl)-1H-pyrazol-5-yl)-3-((S)-2,3-dihydro-1H-inden-1-yl)urea], which IC50 is on record?
Its IC50 is 17 nM.

For `O=C(Cc1cccc(-n2nc(-c3cccs3)cc2NC(=O)N[C@H]2CCc3ccccc32)c1)NCCO` [Example 416, 1-((S)-2,3-dihydro-1H-inden-1-yl)-3-(1-(3-(2-(2-hydroxyethylamino)-2-oxoethyl)phenyl)-3-(thiophen-2-yl)-1H-pyrazol-5-yl)urea], which IC50 is on record?
Its IC50 is 32 nM.

With `O=C(Cc1cccc(-n2nc(-c3cccs3)cc2NC(=O)N[C@H]2CCc3ccccc32)c1)NCC(O)CO` (stereo partly drawn) [Example 417, 1-((S)-2,3-dihydro-1H-inden-1-yl)-3-(1-(3-(2-(2,3-dihydroxypropylamino)-2-oxoethyl)phenyl)-3-(thiophen-2-yl)-1H-pyrazol-5-yl)urea] as the molecule, how does the IC50 read?
The IC50 was 29 nM.

With `CN(C)[C@H]1CCN(C(=O)Cc2cccc(-n3nc(C4CCCC4)cc3NC(=O)Nc3cccc(Cl)c3Cl)c2)C1` [Example 419, 1-(3-cyclopentyl-1-(3-(2-((S)-3-(dimethylamino)pyrrolidin-1-yl)-2-oxoethyl)phenyl)-1H-pyrazol-5-yl)-3-(2,3-dichlorophenyl)urea] as the molecule, how does the IC50 read?
The IC50 was 38 nM.

Which IC50 does the source give for `NC(=O)Cc1cccc(-n2nc(-c3ccccc3F)cc2NC(=O)Nc2ccc(F)c(F)c2F)c1` [Example 422, 1-(1-(3-(2-Amino-2-oxoethyl)phenyl)-3-(2-fluorophenyl)-1H-pyrazol-5-yl)-3-(2,3,4-trifluorophemyl)urea] here?
Its IC50 is 98 nM.

For `NC(=O)Cc1cccc(-n2nc(-c3ccccc3F)cc2NC(=O)Nc2cccc3ccccc23)c1` [Example 423, 1-(1-(3-(2-amino-2-oxoethyl)phenyl)-3-(2-fluorophenyl)-1H-pyrazol-5-yl)-3-(naphthalen-1-yl)urea], which IC50 is on record?
Its IC50 is 21 nM.

How did the IC50 turn out when `O=C(Cc1cccc(-n2nc(-c3ccccc3F)cc2NC(=O)Nc2ccc(F)c(F)c2F)c1)NCC(O)CO` (stereo not drawn) [Example 424, 1-(1-(3-(2-(2,3-Dihydroxypropylamino)-2-oxoethyl)phenyl)-3-(2-fluorophenyl)-1H-pyrazol-5-yl)-3-(2,3,4-trifluorophenyl)urea] was run?
The IC50 was 47 nM.

`O=C(Cc1cccc(-n2nc(-c3ccccc3F)cc2NC(=O)Nc2cccc3ccccc23)c1)NCC(O)CO` (stereo not drawn) [Example 425, 1-(1-(3-(2-(2,3-dihydroxypropylamino)-2-oxoethyl)phenyl)-3-(2-fluorophenyl)-1H-pyrazol-5-yl)-3-(naphthalen-1-yl)urea] was tested. Which IC50 did it give?
Its IC50 is 29 nM.

With `O=C(Cc1cccc(-n2nc(-c3ccccc3F)cc2NC(=O)Nc2cccc3ccccc23)c1)NCCO` [Example 426, 1-(3-(2-fluorophenyl)-1-(3-(2-(2-hydroxyethylamino)-2-oxoethyl)phenyl)-1H-pyrazol-5-yl)-3-(naphthalen-1-yl)urea] as the molecule, how does the IC50 read?
Its IC50 is 38 nM.

`O=C(Cc1cccc(-n2nc(-c3cccs3)cc2NC(=O)Nc2cccc3ccccc23)c1)NCCO` [Example 428, 1-(1-(3-(2-(2-hydroxyethylamino)-2-oxoethyl)phenyl)-3-(thiophen-2-yl)-1H-pyrazol-5-yl)-3-(naphthalen-1-yl)urea] was tested. Which IC50 did it give?
The IC50 was 12 nM.

For `O=C(Cc1cccc(-n2nc(-c3ccc(F)cc3)cc2NC(=O)Nc2cccc(Cl)c2Cl)c1)NCCO` [Example 455, 1-(2,3-dichlorophenyl)-3-(3-(4-fluorophenyl)-1-(3-(2-(2-hydroxyethylamino)-2-oxoethyl)phenyl)-1H-pyrazol-5-yl)urea], which IC50 is on record?
The IC50 was 82 nM.

Which IC50 does the source give for `CC(C)(C)c1cc(NC(=O)Nc2ccc(F)c(F)c2F)n(-c2ccc(CC(N)=O)cc2)n1` [Example 466, 1-(1-(4-(2-amino-2-oxoethyl)phenyl)-3-t-butyl-1H-pyrazol-5-yl)-3-(2,3,4-trifluorophenyl)urea] here?
Its IC50 is 22 nM.

Which IC50 does the source give for `NC(=O)Cc1ccc(-n2nc(-c3cccc(F)c3)cc2NC(=O)Nc2cccc(Cl)c2Cl)cc1` [Example 480, 1-(1-(4-(2-amino-2-oxoethyl)phenyl)-3-(3-fluorophenyl)-1H-pyrazol-5-yl)-3-(2,3-dichlorophenyl)urea] here?
Its IC50 is 73 nM.

With `O=C(Cc1ccc(-n2nc(-c3cccc(F)c3)cc2NC(=O)Nc2cccc(Cl)c2Cl)cc1)NCC(O)CO` (stereo not drawn) [Example 481, 1-(2,3-dichlorophenyl)-3-(1-(4-(2-(2,3-dihydroxypropylamino)-2-oxoethyl)phenyl)-3-(3-fluorophenyl)-1H-pyrazol-5-yl)urea] as the molecule, how does the IC50 read?
The IC50 was 33 nM.

For `COC[C@H]1CCCN1C(=O)Cc1ccc(-n2nc(C(C)(C)C)cc2NC(=O)Nc2cccc(Cl)c2Cl)cc1` [Example 484, (R)-1-(3-t-butyl-1-(4-(2-(2-(methoxymethyl)pyrrolidin-1-yl)-2-oxoethyl)phenyl)-1H-pyrazol-5-yl)-3-(2,3-dichlorophenyl)urea], which IC50 is on record?
The IC50 was 13 nM.

Which IC50 does the source give for `COC[C@@H]1CCCN1C(=O)Cc1ccc(-n2nc(C(C)(C)C)cc2NC(=O)Nc2cccc(Cl)c2Cl)cc1` [Example 485, (S)-1-(3-t-butyl-1-(4-(2-(2-(methoxymethyl)pyrrolidin-1-yl)-2-oxoethyl)phenyl)-1H-pyrazol-5-yl)-3-(2,3-dichlorophenyl)urea] here?
The IC50 was 12 nM.

With `NC(=O)Cc1ccc(-n2nc(-c3cccs3)cc2NC(=O)N[C@H]2CCc3ccccc32)cc1` [Example 489, 1-(1-(4-(2-amino-2-oxoethyl)phenyl)-3-(thiophen-2-yl)-1H-pyrazol-5-yl)-3-((S)-2,3-dihydro-1H-inden-1-yl)urea] as the molecule, how does the IC50 read?
Its IC50 is 35 nM.

Reference: patent US8163756B2 (priority 2004, dated 2012)
